Source: patent publication US10988456B2, “O-aminoheteroaryl alkynyl-containing compound, preparation method therefor, and use thereof” (SHANGHAI INSTITUTE OF MATERIA MEDICA, CHINESE ACADEMY OF …, priority 2017, dated 2021)

Columns and labels:
[1] = tested on: RET signaling pathway in TT and BaF3/CCDC6-RET cells; assay: Western blotting of RET signaling pathway activation in cells; assay type: cell-based; conditions: compounds 2 hours; P-RET, P-AKT, P-ErK
Experimental: Detecting the Effect of Compounds on the Activation of RET Signaling Pathway in TT and BaF3/CCDC6-RET Cells by Western Blotting
The cells were seeded into a 12-well plate (250,000/well). After incubation for 18-24 hours, the compounds were added to react for 2 hours, and then the cells were collected and firstly washed once with cold PBS (containing 1 mmol sodium vanadate); then 1×SDS gel loading buffer (50 mmol Tris-HCl (pH 6.8), 100 mmol DTT, 2% SDS, 10% glycerol, 1 mmol sodium vanadate, 0.1% bromophenol blue) was added to lyse cells. The cell lysate was heated in a boiling water bath for 10 minutes, and then centrifuged at 12,000 rpm for 10 minutes at 4° C.
The supernatant was taken for SDS-PAGE electrophoresis (Mini-PROTEAN 3 Cell, Bio-Rad, Hercules, Calif., USA). After electrophoresis, the proteins were transferred to a nitrocellulose membrane using a semi-dry electrotransfer system (Amersham Life Sciences, Arlington Heights, Ill., USA). The nitrocellulose membrane was placed in a blocking solution (5% skim milk powder diluted in TBS containing 1 mmol sodium vanadate) for 2 hours at room temperature, and then the membrane was placed and reacted with a primary antibody at 4° C. overnight. […] The membrane was placed in a secondary antibody solution and reacted for 1-2 hours at room temperature. After the membrane was washed three times as above, the membrane was stained using ECL (Picece, Rockford, Ill.) reagent was used for staining and then developed.

[2] = Pharmacokinetic experiment in rat (IV and PO, plasma LC-MS/MS); conditions: SD rats
Experimental: (§1) Ponatinib (AP24534) was administered intravenously (IV) and orally (PO) to SD rats. Blood samples were taken at different time points. LC-MS/MS was used to determine the concentration of compound in the plasma of rats after administration of the test compound, and the relevant pharmacokinetic parameters were calculated to examine oral bioavailability and pharmacokinetic properties of the compound in rats.
as §1, with “Compound HuFGFR267” for “Ponatinib (AP24534)”, “intravenously” for “intravenously (IV)”, “orally” for “orally (PO)”

## CN1CCN(Cc2ccc(NC(=O)c3ccc(Cl)c(C#Cc4cccnc4N)c3)cc2C(F)(F)F)CC1 [Example 1, 3-(2-aminopyridine-3-ethynyl)-4-chloro-N-(4-((4-methylpiperazin-1-yl)methylene)-3-(trifluoromethyl)phenyl)benzamide]
[1]
  inhibition of RET phosphorylation and downstream signaling pathway (Western blot, FIG. 1): inhibited RET phosphorylation and the downstream signaling pathway
[2]; IV (2 mg/kg)
  AUC0-t: 2720 ng·h/mL
  CLplasma: 11.9 mL/min/kg
  T1/2: 6.00 h
  Vdss: 4.88 L/kg
[2]; PO (10 mg/kg)
  AUC0-t: 4961 ng·h/mL
  Cmax: 346 ng/mL
  T1/2: 10.5 h
  Tmax: 5.33 h
[2]; PO (10 mg/kg) vs IV (2 mg/kg)
  F: 36.5%
